Test results reported in ChEMBL document CHEMBL3784914, “Bioactive lignan constituents from the twigs of Sambucus williamsii” (Bioorg Med Chem Lett, 2016).

Assays:
[1] = Anti-neuroinflammatory activity in LPS-activated mouse BV2 cells assessed as inhibition of NO production after 24 hrs by Griess assay; format: functional, cell-based; settings: BV-2, 24 h
[2] = Cytotoxicity against mouse BV2 cells assessed as cell viability at 20 uM by MTT assay; format: cell-based, BV-2; settings: read-out: Activity
[3] = test system: A549; experiment: Cytotoxicity against human A549 cells by SRB assay; format: functional, cell-based
[4] = Cytotoxicity against human SKOV3 cells by SRB assay; format: functional, cell-based; settings: SK-OV-3
[5] = test system: SK-MEL-2; experiment: Cytotoxicity against human SK-MEL-2 cells by SRB assay; format: functional, cell-based
[6] = test system: XF498; experiment: Cytotoxicity against human XF498 cells by SRB assay; format: functional, cell-based
[7] = Cytotoxicity in rat C6 cells assessed as cell viability at 20 uM after 24 hrs by MTT assay; format: cell-based; settings: read-out: Activity
[8] = test system: C6; experiment: Neuroprotective activity in rat C6 cells assessed as NGF secretion at 20 uM after 24 hrs by ELISA; format: functional

Row | SMILES | IC50 [1] [µM] | viability at 20 µM [2] [%] | IC50 [3] [µM] | IC50 [4] [µM] | IC50 [5] [µM] | IC50 [6] [µM] | viability at 24 h, 20 µM [7] [%] | Activity [8] [%]
1 | CNC(=N)NCCC[C@H](N)C(=O)O [TILARGININE] | 20.8 | 102 |  |  |  |  |  | 
2 | COc1cc(/C=C\C(=O)OCCCc2cc(OC)c3c(c2)[C@@H](CO)[C@H](c2cc(OC)c(O[C@H](CO)[C@H](O)c4ccc(O)c(OC)c4)c(OC)c2)O3)ccc1O | 14.7 | 138 | 15.8 | 17.6 | 11.4 | 19.6 | 97 | 155.96
3 | CCCCC/C=C/C(=O)CCc1ccc(O)c(OC)c1 [SHOGAOL] |  |  |  |  |  |  | 105 | 151.75
4 | COc1cc([C@@H]2OC[C@@H]3[C@H]2CO[C@H]3c2ccc(O)c(OC)c2)ccc1O [(+)-PINORESINOL] | 34.2 | 148 | > 30 | > 30 | > 30 | > 30 | 105 | 106.93
5 | COc1cc(C[C@@H]2CO[C@H](c3ccc(O)c(OC)c3)[C@]2(O)CO)ccc1O | > 500 | 128 | > 30 | > 30 | > 30 | > 30 | 106 | 107.97
6 | COc1cc(/C=C/C(=O)OCCCc2cc(OC)c3c(c2)[C@@H](CO)[C@H](c2cc(OC)c(O[C@H](CO)[C@H](O)c4ccc(O)c(OC)c4)c(OC)c2)O3)ccc1O | 7.04 | 146 | 16.4 | 17.5 | 14.1 | 18.4 | 82.7 | 153.99
7 | COc1cc([C@H]2OC[C@H]3[C@@H]2CO[C@@H]3c2cc(OC)c(O)c(OC)c2)ccc1O | 45.6 | 127 | > 30 | > 30 | > 30 | > 30 | 103 | 96.39
8 | COc1cc(/C=C/C(=O)OCCCc2cc(OC)c3c(c2)[C@@H](CO)[C@H](c2cc(OC)c(O[C@@H](CO)[C@H](O)c4ccc(O)c(OC)c4)c(OC)c2)O3)ccc1O | 6.82 | 157 | 13.2 | 15.7 | 11.1 | 18.1 | 92.3 | 183.95
9 | COc1cc([C@@H]2c3cc4c(cc3[C@@H](O[C@@H]3O[C@@H]5CO[C@@H](C)O[C@H]5[C@H](O)[C@H]3O)[C@H]3COC(=O)[C@H]23)OCO4)cc(OC)c1O [ETOPOSIDE] |  |  |  | 0.84 |  |  |  | 
10 | COc1cc(C(O)[C@H]2CO[C@H](c3ccc(O)c(OC)c3)[C@H]2CO)ccc1O (stereo not given in full) | 129 | 114 | > 30 | > 30 | > 30 | > 30 | 104 | 101.55
11 | COc1cc(C[C@H]2CO[C@H](c3ccc(O)c(OC)c3)[C@H]2CO)ccc1O [LARICIRESINOL] | 72.6 | 147 | > 30 | > 30 | > 30 | > 30 | 101 | 77.31
12 | COc1cc(C[C@H]2CO[C@H](c3ccc(O)c(OC)c3)[C@@]2(O)CO)ccc1O | 215 | 151 | > 30 | > 30 | > 30 | > 30 | 103 | 107.88
13 | COc1cc([C@@H]2Oc3c(OC)cc(CCCO)cc3[C@H]2CO)ccc1O [DIHYDRODEHYDRODICONIFERYL ALCOHOL] | 40 | 129 | > 30 | > 30 | > 30 | > 30 | 105 | 97.14
